Key:
Assay in all cases: relative viability (nuclei count vs DMSO), 5 days (fraction); higher = more cells survive
Ibrutinib + Olaparib = compound: C=CC(=O)N1CCC[C@@H](n2nc(-c3ccc(Oc4ccccc4)cc3)c3c(N)ncnc32)C1 [Ibrutinib] + O=C(c1cc(Cc2n[nH]c(=O)c3ccccc23)ccc1F)N1CCN(C(=O)C2CC2)CC1 [Olaparib] (partner 8 µM)
How it was run: (§1)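 Relative viability divides the nuclei count in treated wells by that in vehicle wells. Lung cancer cell lines were seeded in 1536-well plates, dosed by pin tool the next day, and fixed and stained after 5 days in one step with final 0.05% Triton X-100, 1% formaldehyde and 1 ug/ml Hoechst. Dosing was a single drug or a fixed anchor-drug dose plus five library-drug doses (not always all listed) in √10 steps, and values are medians of duplicate plates imaged at 4×.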

BMX-IN-1 + Phenformin = compound: C=CC(=O)Nc1cc(-n2c(=O)ccc3cnc4ccc(-c5ccc(NS(C)(=O)=O)cc5)cc4c32)ccc1C [BMX-IN-1] + N=C(N)NC(=N)NCCc1ccccc1 [Phenformin] (partner 250 µM)
How it was run: as §1

Ibrutinib + Pictilisib = compound: C=CC(=O)N1CCC[C@@H](n2nc(-c3ccc(Oc4ccccc4)cc3)c3c(N)ncnc32)C1 [Ibrutinib] + CS(=O)(=O)N1CCN(Cc2cc3nc(-c4cccc5[nH]ncc45)nc(N4CCOCC4)c3s2)CC1 [Pictilisib] (partner 1 µM)
How it was run: as §1

BMX-IN-1 + Olaparib = compound: C=CC(=O)Nc1cc(-n2c(=O)ccc3cnc4ccc(-c5ccc(NS(C)(=O)=O)cc5)cc4c32)ccc1C [BMX-IN-1] + O=C(c1cc(Cc2n[nH]c(=O)c3ccccc23)ccc1F)N1CCN(C(=O)C2CC2)CC1 [Olaparib] (partner 8 µM)
How it was run: as §1

Cell Line	relative viability (Ibrutinib + Olaparib; first compound 0.005 µM)	relative viability (Ibrutinib + Olaparib; first compound 0.01581 µM)	relative viability (Ibrutinib + Olaparib; first compound 0.1581 µM)	relative viability (Ibrutinib + Olaparib; first compound 0.5 µM)	relative viability (BMX-IN-1 + Phenformin; first compound 0.02 µM)	relative viability (BMX-IN-1 + Phenformin; first compound 0.2 µM)	relative viability (BMX-IN-1 + Phenformin; first compound 0.6325 µM)	relative viability (BMX-IN-1 + Phenformin; first compound 2 µM)	relative viability (Ibrutinib + Pictilisib; first compound 0.005 µM)	relative viability (Ibrutinib + Pictilisib; first compound 0.01581 µM)	relative viability (Ibrutinib + Pictilisib; first compound 0.05 µM)	relative viability (Ibrutinib + Pictilisib; first compound 0.1581 µM)	relative viability (Ibrutinib + Pictilisib; first compound 0.5 µM)	relative viability (BMX-IN-1 + Olaparib; first compound 0.02 µM)	relative viability (BMX-IN-1 + Olaparib; first compound 0.2 µM)	relative viability (BMX-IN-1 + Olaparib; first compound 0.6325 µM)	relative viability (BMX-IN-1 + Olaparib; first compound 2 µM)	relative viability (Ibrutinib + Olaparib; first compound 0.05 µM)
NCI-H358	0.469	0.508	0.747	0.248	0.355	0.342	0.384	0.324	0.28	0.372	0.291	0.315	0.264	0.634	0.743	0.71	0.548	–
NCI-H441	0.794	0.728	0.768	0.567	0.864	1.02	0.991	1	0.586	0.551	0.619	0.435	0.449	0.52	0.658	0.619	0.591	0.652
NCI-H460	0.405	0.373	0.432	0.441	0.917	0.576	0.677	0.609	0.331	0.365	0.313	0.19	0.256	0.481	0.475	0.445	0.439	0.441
NCI-H520	0.417	0.334	0.298	0.35	0.711	0.81	0.709	0.693	0.25	0.262	0.258	0.183	0.254	0.323	0.368	0.301	0.273	0.377
NCI-H596	1.09	0.635	0.668	0.723	0.891	0.981	0.732	0.83	0.43	0.406	0.442	0.392	0.393	0.712	0.641	0.692	0.755	0.68
NCI-H647	0.638	0.387	0.57	0.637	0.537	0.547	0.599	0.661	0.28	0.418	0.357	0.323	–	0.687	1.04	0.553	0.574	0.62
NCI-H650	0.423	0.432	0.506	0.459	0.46	0.505	0.452	0.455	–	0.883	–	0.973	0.678	0.366	0.379	0.469	0.456	0.385
NCI-H661	0.716	0.706	0.773	0.579	0.242	0.259	0.282	0.255	0.302	0.413	0.308	0.358	0.284	0.963	0.758	0.81	0.738	0.719

— the supplement of paper PMC10307832
